Data reported in US7112594B2, “Fused bicyclic amide compounds and medicinal use thereof” (Mitsubishi Pharma Corporation, priority 2000, dated 2006).

Assays:
rat lymphocytes = assay: Proliferation of rat lymphocytes stimulated by PMA and calcium ionophore A23187 (tritium thymidine uptake); type: cell-based; settings: Lymphocyte, PMA 10 ng/ml and A23187 100 ng/ml
Description: An RPMI1640 medium (Sigma) was used as a medium, to which kanamycin sulfate (60 μg/ml) and penicillin G potassium (100 units/ml) were added, and then 10% of fetal calf serum (FCS, Gibco) inactivated at 56° C. for 30 min was added and used for the test. The compound of the present invention or a pharmaceutically acceptable salt thereof was dissolved in dimethyl sulfoxide and diluted with the 10% FCS-containing RPMI1640 medium to a desired concentration and used for the test.
The spleens were aseptically removed from 6-week-old male F344 rats or LEW rats (Charles River Japan, Inc.) and minced with tweezers in RPMI1640 medium and then prepared into a single cell suspension of splenic cell. After hematolysis by a hypotonicity treatment using a 9:1 mixed solution of 0.83% aqueous ammonium chloride solution and Tris-HCl buffer (pH 7.65), the suspension was passed through a nylon wool column to give nylon non-adhesive T cell concentration fraction for use. The cell suspension prepared using 10% FCS-containing RPMI1640 medium was added to a flat 96 well microtest plate at 5×10^5 cells/well. The compound of the present invention or a pharmaceutically acceptable salt thereof at a concentration of 0.0001-100 μM, 10 ng/ml of PMA and 100 ng/ml of A23187 were added and the mixture was cultured at 37° C., 5% carbon dioxide and 95% air for 44 hr. After the completion of the culture, tritium thymidine (18.5 kBq/well, specific activity: 185 GBq/mmol, Amersham Pharmacia Biotech) was added and the mixture was cultured at 37° C., 5% carbon dioxide, 95% air for further 4 hr. Then using a cell harvester, the cells were recovered on a glass fiber filter, and using a scintillation counter (MicroBeta 1460) for plate, the radioactivity taken into the cells was measured, and the proliferation of rat lymphocyte induced by stimulation with PMA and A23187 was measured. To be specific, the inhibition rate was calculated by the following formula based on average tritium thymidine uptake (cpm) by lymphocyte in the wells to which various concentrations of the compound of the present invention were added. [formula]
Based on the dose-response curve obtained by plotting average value of tritium thymidine uptake (cpm) or inhibition rate in the longitudinal axis and concentration in the horizontal axis, the concentration (IC50) of the compound that inhibits the level to 50% of the value of the control group was determined by nonlinear regression.

[1] = test system: type II collagen induced arthritis; assay: Type II collagen induced arthritis in DBA/1J mouse; type: in vivo; settings: repeated oral administration

| Compound | IC50 (rat lymphocytes) [nM] | improvement of severity of developed arthritis, swelling of the limbs or destruction of joint ([1]; 10 mg/kg body weight) | death ([1]; 30 mg/kg body weight) |
| --- | --- | --- | --- |
| N#Cc1cc(NC(=O)c2cc3ccccc3o2)ccc1N1CCC(CCO)CC1 [Example 20, N-{3-cyano-4-[4-(2-hydroxyethyl)piperidin-1-yl]phenyl}benzo[b]furan-2-carboxamide] | 230 |  |  |
| CC(C)c1ccc2c(O)c(C(=O)Nc3ccc(OCC(C)(C)C)c(C#N)c3)sc2n1 [Example 28, N-(3-cyano-4-neopentyloxyphenyl)-3-hydroxy-6-isopropylthieno[2,3-b]pyridine-2-carboxamide] | 2000 |  |  |
| Cc1[nH]c2ccc(F)cc2c1C(=O)Nc1ccc(Oc2ccccc2)c(C#N)c1 [Example 6, N-(3-cyano-4-phenoxyphenyl)-5-fluoro-2-methyl-1H-indole-3-carboxamide] | 390 |  |  |
| N#Cc1cc(NC(=O)c2cc3ccccc3s2)ccc1N1CCN(CCO)CC1 [Example 11, N-[3-cyano-4-(4-(2-hydroxyethyl)piperazin-1-yl)phenyl]benzo[b]thiophene-2-carboxamide] | 1500 |  |  |
| Cc1c(C(=O)Nc2ccc(C(F)(F)F)cc2)cnn1-c1ccc(F)cc1 [1-(4-fluorophenyl)-N-(4-trifluoromethylphenyl)-5-methylpyrazole-4-carboxamide] |  | did not improve | confirmed death |
